Results on two substances are retold here after US20100173278A1, “MICROCAPSULES CONTAINING MAMMALS' SPERMATOZOIDS, INSEMINATION DOSE CONTAINING SAME AND METHOD FOR OBTAINING SAME” (Cooperative Bretonne D'Insemination Artificielle Porcine, priority 2007, published 2010).

Like-named read-outs stand apart in the source and are kept apart here.

For the data set, the system named is semen. Kind of data set: Biocompatibility with semen (non-spermicidal; mobility and viability of the spermatozoa). It counts as cell-based, swine. The text has this: A summary of the tests conducted is given in the table at the end of the description.

Take Tween 85: the Bio-compatibility entry is listed as “Yes”.
In the case of sorbitan monolaurate [Span 20], the “effect on the mobility and viability of the spermatozoa” value was “lack of any harmful effect”; the “spermicidal role with respect to semen” value is on record as “non-spermicidal”. For the same substance, the Bio-compatibility entry (surfactant concentration 0.5%, matrix Suppocire DM) was “Yes”. Moreover, the Bio-compatibility result (surfactant concentration 1%, matrix Gelucire 43/01) was “Yes”. The Bio-compatibility entry (surfactant concentration 1%, matrix Suppocire DM) is listed as “Yes”.
